We go through one compound from US20040166079A1, “N-Lauroyl amino acid composition for slimming the human body” (priority 2003, published 2004).

For one assay, the target named is T1, human recombinant MMP-2 (Homo sapiens, UniProt P08253).
T1 construct: purchased CALBIOCHEM PF023
T1 sequence (P08253 110-660): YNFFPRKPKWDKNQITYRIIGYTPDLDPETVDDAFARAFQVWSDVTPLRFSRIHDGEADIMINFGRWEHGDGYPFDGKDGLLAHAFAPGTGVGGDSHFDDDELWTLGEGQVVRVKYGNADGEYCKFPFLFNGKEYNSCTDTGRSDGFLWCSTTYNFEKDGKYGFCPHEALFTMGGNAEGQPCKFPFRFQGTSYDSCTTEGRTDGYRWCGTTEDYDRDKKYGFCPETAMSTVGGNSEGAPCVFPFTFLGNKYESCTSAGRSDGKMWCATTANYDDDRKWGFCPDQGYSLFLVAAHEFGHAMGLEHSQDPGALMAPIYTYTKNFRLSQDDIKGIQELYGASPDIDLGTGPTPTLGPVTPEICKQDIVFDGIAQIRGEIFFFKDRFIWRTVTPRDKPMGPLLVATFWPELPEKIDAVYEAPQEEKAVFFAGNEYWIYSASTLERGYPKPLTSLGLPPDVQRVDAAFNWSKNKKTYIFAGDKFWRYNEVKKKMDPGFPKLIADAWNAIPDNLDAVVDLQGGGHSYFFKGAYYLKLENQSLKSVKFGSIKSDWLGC
In words: Measurement of the activity of metalloproteinase MMP-2 (DQ-gelatin fluorescence). The format is biochemical. The settings on record: incubation concentration 0.1 % DE; relative to the control. The procedure:
(§1) The objective of this test is to evaluate the inhibitory capacity of a product on the enzymatic activity of MMP-2 and MMP-9. This test is based on an enzymatic reaction between purified MMP-2 or MMP-9 and a specific substrate containing a chromophore. The degradation of the chromogenic substrate by the enzyme leads to the production of fluorescence monitored by fluorimetry.
(ii)—A human recombinant MMP-2 (CALBIOCHEM, PF023) is incubated, at 0.1 μg/ml, in the presence of the product and the chromogenic substrate, DQ-gelatin conjugated with fluorescein (MOLECULAR PROBE, D12054) at 10 μg/ml. The reaction mixture is incubated overnight at room temperature, protected from light. The quantity of DQ-gelatin degraded is measured by fluorescence (Ex: 355 nm; Em: 460 nm).
(§2) The reactivity of the enzymatic system is systematically monitored for the measurement of the effect of a metalloproteinase inhibitor, 1,10-phenanthroline. The results are presented in the following table, as a percentage inhibition of the enzymatic activity of MMP-2 and MMP-9 relative to the control.

Another assay relates to human adipocytes. The assay is described as follows: Assay of the free fatty acids (lipolytic activity) in isolated human adipocytes in suspension. The format is cell-based. The following applies: incubation concentration 0.0019 wt % DE. An excerpt:
Hydrolysis of the triglycerides to nonesterified fatty acids and glycerol is called lipolysis. Triglycerides are stored in the adipocytes and constitute the fat reserve. For this reserve to diminish, which is the desired aim when slimming products are used, the triglycerides should be hydrolysed in the form of fatty acids, which in their case can be removed from the cell. Hydrolysis of the triglycerides calls into play a hormone-dependent lipase which must be phosphorylated in order to be active. The phosphorylation step uses a kinase and cAMP. An increase in the cAMP content of the adipocytes is necessary for promoting the activity of the lipase and therefore the lipolysis. The method described consists in incubating the products in the presence of human adipocytes in suspension, followed by […].
The test is carried out using human adipocytes isolated and prepared as a cellular suspension. The adipocytes are isolated from the subcutaneous abdominal adipose tissue recovered during plastic surgery operations (abdominal plastic surgery operations) performed on women. The cells are isolated from fresh tissue. The adipose tissue is isolated and dissociated by the action of a collagenase (SIGMA™, 1 mg/ml, 30 minutes at 37° C., gentle stirring). Collagenase digests the connective tissue present in the adipose tissue. After digestion, the cells are filtered and washed in an appropriate culture medium containing MEM medium free of phenol red, free of glutamine (SIGMA)+2.2 mg/ml of sodium bicarbonate (GIBCO)+50 IU of penicillin (BIOWHITTAKER™)+50 μg/ml of streptomycin (BIOWHITTAKER™)+1% (v/v) of L-glutamine (BIOWHITTAKER™)+0.5% of lipid-free serum albumin (SIGMA™). The adipocyte suspension is used immediately after its preparation.
The test products are diluted in the adipocyte culture medium. They are incubated with the cells in suspension for two hours at 37° C. (250 μl of product+250 μl of adipocyte suspension).
After the incubation, the cell lysis is checked visually by the presence of a lipid layer at the surface of the cellular suspension. The supernatant media are collected. The free fatty acids are assayed by spectrophotometry using a commercial kit (NEFA™ C kit, WAKO), with reference to a fatty acid calibration series. The lypolytic activity of the products is evaluated relative to a control group incubated in the presence of adipocytes and in the absence of product. […] Five assays are performed for each of the test products which are as follows:
This assay is repeated by carrying out new assays at different concentrations.

For the next assay, the system named is lipoprotein lipase (LPL). The assay is described as follows: Measurement of the activity of lipoprotein lipase (PNPB hydrolysis, 400 nm). The format is biochemical, pseudomonas species. The following applies: relative to the control. How it is done:
Lipoprotein lipase (LPL) is an enzyme found in the extracellular compartment of adipocytes. It brings about the hydrolysis of the triglycerides contained in the chylomicrons to fatty acids and glycerol. The latter can thus penetrate into the adipocytes to be stored therein. […] It is based on an enzymatic test using a purified enzyme. A lipoprotein lipase (SIGMA, pseudomonas species) is incubated in the presence of a substrate, p-nitrophenyl butyrate (PNPB), which absorbs light at 400 nm after hydrolysis. [drawing 6] The enzyme, at 20 U/ml, is incubated in the presence of the test product and PNPB, at 0.9 mM. The kinetics of appearance of p-nitrophenol is performed at 37° C. for 10 minutes. It is monitored by measuring the absorbance at 400 nm. The results are presented in the following table, as a percentage inhibition of the lipoprotein lipase activity relative to the control.

In a further assay the target is T2, human recombinant MMP-9 (Homo sapiens, UniProt P14780).
T2 construct: purchased CALBIOCHEM PF024
The assay is described as follows: Measurement of the activity of metalloproteinase MMP-9 (DQ-gelatin fluorescence). The format is biochemical. The following applies: incubation concentration 0.1 % DE; relative to the control. The procedure: as §1
(i)—A human recombinant MMP-9 (CALBIOCHEM, PF024) is incubated, at 0.05 μg/ml, in the presence of the product and the chromogenic substrate, DQ-gelatin conjugated with fluorescein (MOLECULAR PROBE, D12054) at 10 μg/ml. The reaction mixture is incubated overnight at room temperature, protected from light. The quantity of DQ-gelatin degraded is measured by fluorescence (Ex: 355 nm; Em: 460 nm).
as §2

T2 sequence (P14780 107-707 limits assumed): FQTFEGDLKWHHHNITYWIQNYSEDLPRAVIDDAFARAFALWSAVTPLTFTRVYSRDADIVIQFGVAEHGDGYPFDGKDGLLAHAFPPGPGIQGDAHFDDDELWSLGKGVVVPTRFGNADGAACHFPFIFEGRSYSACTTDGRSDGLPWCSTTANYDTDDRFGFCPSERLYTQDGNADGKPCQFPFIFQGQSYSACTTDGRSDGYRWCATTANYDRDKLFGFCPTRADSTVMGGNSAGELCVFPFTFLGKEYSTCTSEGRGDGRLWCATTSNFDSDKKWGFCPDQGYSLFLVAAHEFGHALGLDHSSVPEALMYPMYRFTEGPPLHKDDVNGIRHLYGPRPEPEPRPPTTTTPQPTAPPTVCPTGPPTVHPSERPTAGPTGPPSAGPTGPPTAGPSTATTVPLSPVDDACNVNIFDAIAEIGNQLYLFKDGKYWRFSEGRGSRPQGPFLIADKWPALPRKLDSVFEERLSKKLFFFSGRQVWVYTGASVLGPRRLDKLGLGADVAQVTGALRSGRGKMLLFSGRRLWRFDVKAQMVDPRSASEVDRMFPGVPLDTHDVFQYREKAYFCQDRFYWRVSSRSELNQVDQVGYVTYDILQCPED

Consider `Cn1c(=O)c2c(ncn2C)n(C)c1=O` [Caffeine, 1,3,7-trimethyl-xanthine], for which, at human recombinant MMP-2, the MMP-2 inhibiting effect stood at 0%. For the same compound, the “Free fatty acid concentration” value in the assay with human adipocytes (2 h at 37° C., mean of five assays) was 15.10 ± 4.11 µM. For the same compound, the “Lipolytic activity (compared with the control = 100)” value in the assay on human adipocytes (control = 100) is listed as 131. In addition, the “Percentage inhibition of LPL” value in the assay with lipoprotein lipase (LPL) (incubation concentration 0.01 % DE) and with lipoprotein lipase (LPL) (incubation concentration 0.1 % DE) was 0% in each case. For the same compound, the MMP-9 inhibiting effect on human recombinant MMP-9 was found to be 0%.
